Experimental data: patent publication US20070128217A1 (priority 2003, published 2007)

Legend:
[1] = tested on: rabbit serum obtained by immunizing a rabbit with the SARS-CoV strain Frankfurt 1; format: binding; set-up: Binding of a rabbit serum to linear peptides / Binding of a rabbit serum to looped peptides / Rabbit serum linear peptides / Rabbit serum looped peptides / Binding of a rabbit serum to linear peptides of protein N of SARS-CoV Urbani (Rabbit serum linear peptides) / Binding of a rabbit serum to looped/cyclic peptides of protein N of SARS-CoV Urbani (Rabbit serum looped peptides): unit not given here
[2] = tested on: control sera (pooled serum of ten healthy LUMC hospital workers; commercial negative donor pooled serum from the Dutch bloodbank); format: binding, human; set-up: Binding of Control serum LUMC to linear peptides / Binding of Control serum Blood-bank to linear peptides / Binding of Control serum LUMC to looped peptides / Binding of Control Serum Blood-Bank to Looped peptides / Binding of Control serum LUMC to linear peptides of the protein M of SARS-CoV Urbani / Binding of Control serum Blood-bank to linear peptides of the protein M of SARS-CoV Urbani / Binding of Control serum LUMC to looped peptides of the protein M of SARS-CoV Urbani / Binding of Control Serum Blood-Bank to Looped peptides of the protein M of SARS-CoV Urbani: unit not given here
[3] = tested on: antibodies in sera from SARS patients (sera 1a, 1b, 2, 6, 37, 62, London, SARS-yellow, SARS-green); format: binding, human; set-up: Binding of serum 6 to linear peptides of protein X1 of SARS-CoV Urbani / Binding of serum 37 to linear peptides of protein X1 of SARS-CoV Urbani / Binding of serum 6 to looped/cyclic peptide (PEPSCAN-ELISA) / Binding of serum 37 to looped/cyclic peptide (PEPSCAN-ELISA) / Binding of serum 37 to looped/cyclic peptides of protein X1 of SARS-CoV Urbani / Binding of serum 6 to linear peptides of protein X2 / Binding of serum 37 to linear peptides of protein X2 / Binding of serum 37 to looped/cyclic peptides of protein X2 of SARS-CoV Urbani / Binding of serum 6 to linear peptides of protein M of SARS-CoV Urbani / Binding of serum 37 to linear peptides of protein M of SARS-CoV Urbani / Binding of serum 6 to looped/cyclic peptides of protein M of SARS-CoV Urbani / Binding of serum 37 to looped/cyclic peptides of protein M of SARS-CoV Urbani / Binding of serum 6 to linear peptides of protein X3 of SARS-CoV Urbani / Binding of serum 37 to linear peptides of protein X3 of SARS-CoV Urbani / Binding of serum 37 to looped/cyclic peptides of protein X3 of SARS-CoV Urbani / Binding of serum 6 to linear peptides of protein X4 of SARS-CoV Urbani / Binding of serum 37 to linear peptides of protein X4 of SARS-CoV Urbani / Binding of serum 37 to looped/cyclic peptides of protein X4 of SARS-CoV Urbani / Binding of serum 6 to linear peptides of protein X5 of SARS-CoV Urbani / Binding of serum 37 to linear peptides of protein X5 of SARS-CoV Urbani / Binding of serum 37 to looped/cyclic peptides of protein X5 of SARS-CoV Urbani / Binding of serum 6 to linear peptides of protein N of SARS-CoV Urbani / Binding of serum 37 to linear peptides of protein N of SARS-CoV Urbani / Binding of serum 6 to linear peptide (PEPSCAN-ELISA) / Binding of serum 1a to looped/cyclic peptides of protein N of SARS-CoV Urbani / Binding of serum 1b to looped/cyclic peptides of protein N of SARS-CoV Urbani / Binding of serum 2 to looped/cyclic peptides of protein N of SARS-CoV Urbani / Binding of serum 6 to looped/cyclic peptides of protein N of SARS-CoV Urbani / Binding of serum 37 to looped/cyclic peptides of protein N of SARS-CoV Urbani / Binding of serum 62 to looped/cyclic peptides of protein N of SARS-CoV Urbani / Binding of serum London to looped/cyclic peptides of protein N of SARS-CoV Urbani / Binding of serum SARS-green to looped/cyclic peptides of protein N of SARS-CoV Urbani: unit not given here

Sequence	Binding of Control Serum Blood-Bank to Looped peptides [2]	Binding of Control serum Blood-bank to linear peptides [2]	Binding of Control serum LUMC to linear peptides [2]	Binding of Control serum LUMC to looped peptides [2]	Binding of a rabbit serum to linear peptides [1]	Binding of a rabbit serum to looped peptides [1]	Binding of serum 1a to linear peptides of protein X1 of SARS-CoV Urbani [3]	Binding of serum 1a to looped/cyclic peptide (PEPSCAN-ELISA) [3]	Binding of serum 1b to linear peptides of protein X1 of SARS-CoV Urbani [3]	Binding of serum 1b to looped/cyclic peptide (PEPSCAN-ELISA) [3]	Binding of serum 2 to linear peptides of protein X1 of SARS-CoV Urbani [3]	Binding of serum 2 to looped/cyclic peptide (PEPSCAN-ELISA) [3]	Binding of serum 6 to linear peptides of protein X1 of SARS-CoV Urbani [3]	Binding of serum 6 to looped/cyclic peptide (PEPSCAN-ELISA) [3]	Binding of serum 37 to linear peptides of protein X1 of SARS-CoV Urbani [3]	Binding of serum 37 to looped/cyclic peptide (PEPSCAN-ELISA) [3]	Binding of serum 62 to linear peptides of protein X1 of SARS-CoV Urbani [3]	Binding of serum London to linear peptides of protein X1 of SARS-CoV Urbani [3]	Binding of serum SARS-green to linear peptides of protein X1 of SARS-CoV Urbani [3]	Binding of serum SARS-yellow to linear peptides of protein X1 of SARS-CoV Urbani [3]	also measured
PKLFIRQEEVQQELY	0.6	0.7	0.5	0.7	–	–	–	–	–	–	–	–	–	–	–	–	–	–	–	–	Rabbit serum linear peptides [1]: 0.4; Rabbit serum looped peptides [1]: 0.4; Binding of serum 1a to linear peptides of protein X4 of SARS-CoV Urbani [3]: 0.7; Binding of serum 1a to looped/cyclic peptides of protein X4 of SARS-CoV Urbani [3]: 0.8; Binding of serum 1b to linear peptides of protein X4 of SARS-CoV Urbani [3]: 0.6; Binding of serum 1b to looped/cyclic peptides of protein X4 of SARS-CoV Urbani [3]: 0.6; Binding of serum 2 to linear peptides of protein X4 of SARS-CoV Urbani [3]: 0.4; Binding of serum 2 to looped/cyclic peptides of protein X4 of SARS-CoV Urbani [3]: 0.5; Binding of serum 6 to linear peptides of protein X4 of SARS-CoV Urbani [3]: 0.5; Binding of serum 6 to looped/cyclic peptides of protein X4 of SARS-CoV Urbani [3]: 0.5; Binding of serum 37 to linear peptides of protein X4 of SARS-CoV Urbani [3]: 0.8; Binding of serum 37 to looped/cyclic peptides of protein X4 of SARS-CoV Urbani [3]: 0.7; Binding of serum 62 to linear peptides of protein X4 of SARS-CoV Urbani [3]: 0.8; Binding of serum 62 to looped/cyclic peptides of protein X4 of SARS-CoV Urbani [3]: 0.6; Binding of serum London to linear peptides of protein X4 of SARS-CoV Urbani [3]: 0.8; Binding of serum London to looped/cyclic peptides of protein X4 of SARS-CoV Urbani [3]: 0.4; Binding of serum SARS-green to linear peptides of protein X4 of SARS-CoV Urbani [3]: 0.7; Binding of serum SARS-green to looped/cyclic peptides of protein X4 of SARS-CoV Urbani [3]: 0.5; Binding of serum SARS-yellow to linear peptides of protein X4 of SARS-CoV Urbani [3]: 0.8; Binding of serum SARS-yellow to looped/cyclic peptides of protein X4 of SARS-CoV Urbani [3]: 0.4
PLLYDANYFVCWHTH	0.6	0.7	0.6	0.6	0.1	0.5	0.9	0.6	0.8	0.6	0.6	0.4	0.6	0.4	0.8	0.7	0.8	0.4	0.4	0.5	Binding of serum 62 to looped/cyclic peptide (PEPSCAN-ELISA) [3]: 0.7; Binding of serum London to looped/cyclic peptide (PEPSCAN-ELISA) [3]: 0.2; Binding of serum SARS-green to looped/cyclic peptide (PEPSCAN-ELISA) [3]: 0.3; Binding of serum SARS-yellow to looped/cyclic peptide (PEPSCAN-ELISA) [3]: 0.4
PLQASLPFGWLVIGV	0.7	0.8	0.9	0.5	0.1	0.4	0.8	0.5	0.5	0.3	0.5	0.4	0.5	0.4	0.7	0.5	0.7	0.3	0.4	0.6	Binding of serum 62 to looped/cyclic peptide (PEPSCAN-ELISA) [3]: 0.7; Binding of serum London to looped/cyclic peptide (PEPSCAN-ELISA) [3]: 0.2; Binding of serum SARS-green to looped/cyclic peptide (PEPSCAN-ELISA) [3]: 0.3; Binding of serum SARS-yellow to looped/cyclic peptide (PEPSCAN-ELISA) [3]: 0.4
PPNVQIHTIDGSSGV	0.5	0.5	0.5	0.7	0.1	0.5	0.6	–	0.5	–	0.4	–	0.4	–	0.7	–	0.6	0.3	0.3	0.4	Binding of serum 1a to looped/cyclic peptides of protein X1 of SARS-CoV Urbani [3]: 0.5; Binding of serum 1b to looped/cyclic peptides of protein X1 of SARS-CoV Urbani [3]: 0.4; Binding of serum 2 to looped/cyclic peptides of protein X1 of SARS-CoV Urbani [3]: 0.3; Binding of serum 6 to looped/cyclic peptides of protein X1 of SARS-CoV Urbani [3]: 0.4; Binding of serum 37 to looped/cyclic peptides of protein X1 of SARS-CoV Urbani [3]: 0.6; Binding of serum 62 to looped/cyclic peptides of protein X1 of SARS-CoV Urbani [3]: 0.5; Binding of serum London to looped/cyclic peptides of protein X1 of SARS-CoV Urbani [3]: 0.2; Binding of serum SARS-green to looped/cyclic peptides of protein X1 of SARS-CoV Urbani [3]: 0.4; Binding of serum SARS-yellow to looped/cyclic peptides of protein X1 of SARS-CoV Urbani [3]: 0.3
